Some test systems named below: 786-0; A498; CCRF-CEM; EKVX; HCT-116; HCT-15; KM12; LOX IMVI; Malme-3M; NCI-H23; NCI-H460; OVCAR-4; RPMI-8226; SF-268; SF-295; SK-MEL-28; SK-MEL-5; SR; UO-31.
Common to all, as to test: inhibition of tumour cell growth, NCI panel, 48 h

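Test compounds were applied to cells in 96-well plates for 48 hours at 5 doses. Abbreviation: GI50, concentration required for 50% inhibition of growth.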 Activity calls are given as the source filed them. Cut-off read from the data, not from the text of the source: active = GI50 up to about 1.1 µM and inactive = higher.

Regarding `O=C1/C(=C2\SCC(=O)N2c2ccccc2)SC(=S)N1c1ccccc1`, the GI50 is 47.6 µM (inactive) in the test with 786-0; 40.4 µM (inactive) in the test on A498; 37.2 µM (inactive) in the test with CCRF-CEM; 30.3 µM (inactive) in the test with EKVX; 46.3 µM (inactive) in the test with HCT-116; 43 µM in the test on HCT-15. The GI50 in the test with KM12 is 51.9 µM (inactive); in the test with LOX IMVI, 32.7 µM (inactive); in the test with Malme-3M it was 38.2 µM (inactive); in the test with NCI-H23, 72.6 µM (inactive); with NCI-H460, 39.1 µM (inactive); in the test on OVCAR-4, 23.8 µM (inactive). Also, the GI50 was 36.3 µM (inactive) in the test with RPMI-8226; 41.8 µM (inactive) in the test on SF-268; 28.1 µM (inactive) with SF-295; 35.9 µM (inactive) in the test on SK-MEL-28; 46.7 µM (inactive) with SK-MEL-5; 12 µM (inactive) with SR.

`Cc1n[nH]c(=O)c2cc(-c3ccccc3)[nH]c12`: the GI50 is > 100 µM (inactive) in the test with 786-0; 25.9 µM (inactive) with A498; 48.2 µM (inactive) in the test on CCRF-CEM; 36.6 µM (inactive) in the test on EKVX; 52.6 µM (inactive) with HCT-116; 54.2 µM with HCT-15. The GI50 is 88.5 µM (inactive) in the test on KM12; 58.7 µM (inactive) with LOX IMVI; 64.1 µM (inactive) with Malme-3M; 84.1 µM (inactive) with NCI-H23; 48 µM (inactive) with NCI-H460; 52.6 µM (inactive) in the test on OVCAR-4. Also, the GI50 with RPMI-8226 was 37.6 µM (inactive); in the test with SF-268, 59.7 µM (inactive); with SF-295, 35.8 µM (inactive); in the test with SK-MEL-5 it was 41.6 µM (inactive); in the test on SR, 46.8 µM (inactive); in the test on UO-31, 49.3 µM (inactive).

In the case of `CCOC(=O)Nn1c(C)nnc1-c1ccccc1`, the GI50 was > 100 µM (inactive) in the test on 786-0; > 100 µM (inactive) with A498; > 100 µM (inactive) with CCRF-CEM; > 100 µM (inactive) with EKVX; > 100 µM (inactive) in the test on HCT-116; over 100 µM in the test with HCT-15. Besides, the GI50 in the test on KM12, in the test with LOX IMVI, in the test on Malme-3M, in the test with NCI-H23, with NCI-H460 and in the test with OVCAR-4 was > 100 µM (inactive) each time. Also, the GI50 in the test with RPMI-8226, with SF-268, in the test with SF-295, with SK-MEL-5, in the test on SR and in the test on UO-31 was > 100 µM (inactive) throughout.

Regarding `O=c1ccn(C/C=C/c2ccccc2)c(=S)n1C/C=C/c1ccccc1`, the GI50 in the test with 786-0 was > 100 µM (inactive); with A498, > 100 µM (inactive); in the test with CCRF-CEM, 18.4 µM (inactive); in the test with EKVX it was 66.8 µM (inactive); with HCT-116, 44.6 µM (inactive); with HCT-15 it was over 100 µM. Moreover, the GI50 with KM12 is > 100 µM (inactive); with LOX IMVI it was 28.6 µM (inactive); with Malme-3M, 89.1 µM (inactive); in the test with NCI-H23, 33.3 µM (inactive); in the test on NCI-H460 it was 80 µM (inactive); in the test on OVCAR-4, 90.4 µM (inactive). The GI50 in the test with SF-268 is > 100 µM (inactive); with SF-295, > 100 µM (inactive); with SK-MEL-28, > 100 µM (inactive); in the test with SK-MEL-5, 35.2 µM (inactive); in the test with SR, 8.24 µM (inactive); in the test on UO-31 it was 76 µM (inactive).

On to `COC(=O)[C@@H]1Cc2cc(O)c(O)cc2C2(CCN(C)CC2)O1`, for which the GI50 in the test with 786-0 was > 10 µM (inactive); with A498, > 10 µM (inactive); with CCRF-CEM, > 10 µM (inactive); in the test on EKVX, > 10 µM (inactive); in the test on HCT-116, > 10 µM (inactive); with HCT-15, over 10 µM. Also, the GI50 in the test on KM12, with LOX IMVI, in the test on Malme-3M, in the test with NCI-H23, in the test with NCI-H460 and with OVCAR-4 was > 10 µM (inactive) each time. Also, the GI50 in the test with RPMI-8226, in the test with SF-268, in the test with SF-295, in the test on SK-MEL-28, with SK-MEL-5 and in the test on SR was > 10 µM (inactive) in each case.

For the compound `Cc1c(C)c2c(c(N)c1C#N)C(=O)N(CCc1ccccc1)C2=O`, the GI50 in the test with 786-0 is > 100 µM (inactive); in the test with A498, > 100 µM (inactive); with CCRF-CEM, > 100 µM (inactive); in the test with EKVX, > 100 µM (inactive); with HCT-116, > 100 µM (inactive); with HCT-15, over 100 µM. The GI50 in the test on KM12, in the test on LOX IMVI, with Malme-3M, with NCI-H460, with OVCAR-4 and with RPMI-8226 was > 100 µM (inactive) in each case. Besides, the GI50 with SF-268 is > 100 µM (inactive); in the test on SF-295 it was > 100 µM (inactive); with SK-MEL-28 it was > 100 µM (inactive); with SK-MEL-5, > 100 µM (inactive); with SR it was 38.5 µM (inactive); in the test with UO-31, > 100 µM (inactive).

`CC1Cc2c(Br)nc(N)nc2NC1=O` (centres undefined): the GI50 in the test with 786-0 is > 100 µM (inactive); in the test on A498, > 100 µM (inactive); with EKVX, > 100 µM (inactive); with HCT-116 it was > 100 µM (inactive); in the test with HCT-15, over 100 µM; in the test on KM12, > 100 µM (inactive). The GI50 with LOX IMVI, in the test with Malme-3M, with NCI-H23, with NCI-H460, with OVCAR-4 and in the test on RPMI-8226 was > 100 µM (inactive) in each case. For the same compound, the GI50 with SF-268 is > 100 µM (inactive); with SF-295, > 100 µM (inactive); with SK-MEL-28, > 100 µM (inactive); in the test with SK-MEL-5 it was > 100 µM (inactive); in the test on SR, 86.3 µM (inactive); with UO-31, > 100 µM (inactive).

`ClCCN(CCCl)c1ccc(CNCCCNCc2ccc(N(CCCl)CCCl)cc2)cc1`: the GI50 with 786-0 is 2 µM (inactive); in the test on A498 it was 7.24 µM (inactive); with CCRF-CEM, 2.78 µM (inactive); with EKVX, 2.69 µM (inactive); with HCT-116 it was 4.13 µM (inactive); in the test with HCT-15 it was 2.47 µM. In addition, the GI50 in the test with KM12 was 1.99 µM (inactive); in the test with LOX IMVI, 1.65 µM (inactive); in the test with Malme-3M, 2.44 µM (inactive); in the test on NCI-H23 it was 3 µM (inactive); in the test with NCI-H460, 0.402 µM (active); in the test on RPMI-8226, 3.52 µM (inactive). Further, the GI50 with SF-268 was 1.43 µM (inactive); in the test with SK-MEL-28, 1.69 µM (inactive); with SK-MEL-5, 1.95 µM (inactive); in the test with SR, 0.11 µM (active); in the test on UO-31 it was 2.06 µM (inactive).

As to `CC(=O)Nc1ccc2nc(-c3cccc(F)c3)cc(O)c2c1`, the GI50 is 10.6 µM (inactive) with 786-0; 8.85 µM (inactive) with A498; 0.731 µM (active) with CCRF-CEM; 75 µM (inactive) in the test on EKVX; 17.7 µM in the test on HCT-15; 5.08 µM (inactive) in the test with KM12. Also, the GI50 in the test on Malme-3M was 4 µM (inactive); in the test on NCI-H23, 16.6 µM (inactive); with NCI-H460 it was 16.4 µM (inactive); in the test with RPMI-8226, 20.6 µM (inactive); in the test on SF-268 it was 28.1 µM (inactive); in the test with SF-295 it was 18.8 µM (inactive). Moreover, the GI50 is > 23.7 µM (inactive) in the test on SK-MEL-28, 5.36 µM (inactive) in the test on SK-MEL-5, 2.32 µM (inactive) in the test on SR and 24.1 µM (inactive) in the test with UO-31.

In the case of `COc1ccccc1NCc1cccc2c(=O)c3ccc(Cl)cc3oc12`, the GI50 in the test on 786-0 was > 100 µM (inactive); with A498 it was > 100 µM (inactive); in the test with CCRF-CEM it was 48 µM (inactive); in the test on EKVX, > 100 µM (inactive); in the test with HCT-116, > 100 µM (inactive); with HCT-15, over 100 µM. Further, the GI50 in the test with KM12 was 40.1 µM (inactive); with LOX IMVI, > 100 µM (inactive); in the test on Malme-3M, 34.7 µM (inactive); with NCI-H23 it was 59.3 µM (inactive); in the test on OVCAR-4, > 100 µM (inactive); in the test on RPMI-8226, 39.3 µM (inactive). Moreover, the GI50 in the test on SF-295 was > 100 µM (inactive); with SK-MEL-28 it was > 100 µM (inactive); in the test on SK-MEL-5 it was > 100 µM (inactive); in the test on SR, 83.4 µM (inactive); with UO-31, 95.9 µM (inactive).

In the case of `CC1(C)CC(=O)C(C(c2cccc(O)c2O)C2C(=O)CC(C)(C)CC2=O)C(=O)C1`, the GI50 with 786-0 was 52.6 µM (inactive); with A498, > 100 µM (inactive); in the test on CCRF-CEM it was 20.1 µM (inactive); with EKVX it was > 100 µM (inactive); in the test on HCT-116 it was > 100 µM (inactive); in the test on HCT-15 it was 57.1 µM. For the same compound, the GI50 in the test on KM12 was > 100 µM (inactive); in the test on LOX IMVI, 81.8 µM (inactive); with Malme-3M, > 100 µM (inactive); in the test on NCI-H23 it was > 100 µM (inactive); in the test on NCI-H460, > 100 µM (inactive); in the test on OVCAR-4, > 100 µM (inactive). Moreover, the GI50 with RPMI-8226 is > 100 µM (inactive); in the test with SF-268, 73.8 µM (inactive); with SF-295, > 100 µM (inactive); in the test on SK-MEL-28, > 100 µM (inactive); in the test on SK-MEL-5, > 100 µM (inactive); with SR, 36 µM (inactive).
